“Also recorded” adds a separate entry of the source.

The text below walks through data of patent US20130263297A1, “METHODS OF TREATING CANCER” (Cedars-Sinai Medical Center, priority 2010, published 2013).

Series [1] deals with GFP-tagged RANKL stably expressed in ARCaPE cells (ARCaPE-RANKL). In words: cell-based or functional assay.
Series [2] relates to ARCaPE-RANKL cells. Briefly: Pathway inhibitor treatment followed by Western blot analysis, ARCaPE-RANKL. In kind it is cell-based, human. The protocol: (§1) ARCaPE and LNCaP cells were cultured in 6-well plate and at 70% confluency, the cells were serum-starved overnight and then treated with 200 ng/ml of trimerized RANKL in serum-free and phenol-red free RPMI-1640 medium for three days before harvesting the cells. ARCaPE-RANKL and LNCaP-RANKL cells were cultured in 6-well plate and treated with 20 μM of LY294002, a PI3K inhibitor, 20 μM of SB203580, an inhibitor of MAP kinase reactivating kinase, or 2 μM of PS341 (bortezomib), a proteasome inhibitor, at 90% confluency for four hours. Cells were lysed in RIPA buffer containing 1× protease inhibitor cocktail (Thermo Fisher Scientific, Waltham, Mass.) and centrifuged, and the supernatants were collected and quantified using Bradford Protein Assay (Thermo Fisher Scientific, Waltham, Mass.). Cell lysates (20-30 μg) were resolved on a 4-12% Bis-Tris gradient SDS-PAGE (Invitrogen, Carlsbad, Calif.) under reducing conditions, followed by transblotting onto nitrocellulose membrane (BioRad, Hercules, Calif.). The membranes were blocked in 5% non-fat milk in PBST for one hour at room temperature (RT) and incubated with diluted primary antibodies in blocking buffer at 4° C. overnight. The primary antibodies used were RANKL, E-cadherin, vimentin, and OPG (Santa Cruz Biotechnology, Inc., Santa Cruz, Calif.), RANK (Amgen, Thousand Oaks, Calif.), N-cadherin (BD Transduction Laboratories, San Jose, Calif.), phosphor-Akt (Ser 473), Akt, phosphor-p38 (Thr180/Tyr182), p38, phosphor-ERK1/2 (Thr202/Tyr204), ERK, phosphor-SAPK/JNK (Thr183/Tyr185), JNK, phosphor-NF-κB p65 (Ser536), and NF-κB p65 (Cell Signaling Technology, Danvers, Mass.). The membranes were washed with PBST for three times before incubating with peroxidase-conjugated anti-mouse or anti-rabbit secondary antibodies at RT for one hour. After three times washing, the membranes were visualized using ECL Plus reagent (GE Healthcare, Piscataway, N.J.).

Series [3] relates to LNCaP-RANKL cells. Briefly: Pathway inhibitor treatment followed by Western blot analysis, LNCaP-RANKL. In kind it is cell-based, human. As to conditions: 4 h. The protocol:
ARCaPE and LNCaP cells were cultured in 6-well plate and at 70% confluency, the cells were serum-starved overnight and then treated with 200 ng/ml of trimerized RANKL in serum-free and phenol-red free RPMI-1640 medium for three days before harvesting the cells. ARCaPE-RANKL and LNCaP-RANKL cells were cultured in 6-well plate and treated with 20 μM of LY294002, a PI3K inhibitor, 20 μM of SB203580, an inhibitor of MAP kinase reactivating kinase, or 2 μM of PS341 (bortezomib), a proteasome inhibitor, at 90% confluency for four hours. Cells were lysed in RIPA buffer containing 1× protease inhibitor cocktail (Thermo Fisher Scientific, Waltham, Mass.) and centrifuged, and the supernatants were collected and quantified using Bradford Protein Assay (Thermo Fisher Scientific, Waltham, Mass.). Cell lysates (20-30 μg) were resolved on a 4-12% Bis-Tris gradient SDS-PAGE (Invitrogen, Carlsbad, Calif.) under reducing conditions, followed by transblotting onto nitrocellulose membrane (BioRad, Hercules, Calif.). The membranes were blocked in 5% non-fat milk in PBST for one hour at room temperature (RT) and incubated with diluted primary antibodies in blocking buffer at 4° C. overnight. […]

The target of series [4] is Flag-tagged RANKL stably expressed in LNCaP cells (LNCaP-RANKL). Briefly: cell-based or functional assay.
Series [5] deals with castration-resistant prostate cancer (CRPC) with bone metastasis; prostate or breast cancers. As to conditions: cited from earlier work.
Series [6] relates to RANKL-expressing prostate cancer cells. In words: Stem cell and neuroendocrine marker expression. The format is cell-based.
The test system of series [7] is cMet in LNCaP cells. In words: cMet expression and phosphorylation (Western blot), LNCaP. In kind it is cell-based, human.
Series [8] deals with cMet in ARCaPE cells. Briefly: cMet expression and phosphorylation (Western blot), ARCaPE. The format is cell-based, human. As to conditions: exogeneous RANKL or HGF treatment. (Immunoblotting shows a protein as a band on a membrane.)
Series [9] deals with LNCaP cells. Briefly: EMT marker / RANKL expression and signaling by RT-PCR and Western blot, LNCaP model. In kind it is cell-based, human. The following applies: 20 μM cMyc inhibitor. The protocol: Total RNA from cells was isolated using RNeasy Mini Kit (Qiagen, Valencia, Calif.) according to manufacturer's instructions. Complementary DNA (cDNA) was generated from 3 μg of total RNA using SuperScript® III First-Strand Synthesis System (Invitrogen, Carlsbad Calif.), and 1 μl of cDNA was subjected to PCR analyses using the following primers: RANKL F: 5′-TGGATCACAGCACATCAGAGCAG-3′ (SEQ ID NO:3); RANKL R: 5′-TGGGGCTCAATCTATATCTCGAAC-3′ (SEQ ID NO:4); RANK F: 5′-GGGAAAGCACTCACAGCTAATTTG-3′ (SEQ ID NO:5); RANK R: 5′-GCACTGGCTTAAACTGTCATTCTCC-3′ (SEQ ID NO:6); OPG F: 5′-GCT AAC CTC ACC TTC GAG-3′ (SEQ ID NO:7); OPG R: 5′-TGA TTG GAC CTG GTT ACC-3′ (SEQ ID NO:8); E-cadherin F: 5′-GCCAAGCAGCAGTACATTCTACACG-3′ (SEQ ID NO:9); E-cadherin R: 5′-GCTGTTCTTCACGTGCTCAAAATCC-3′ (SEQ ID NO:10); N-cadherin F: 5′-GATGTTGAGGTACAGAATCGT-3′ (SEQ ID NO:11); N-cadherin R: 5′-GGT CGG TCT GGA TGG CGA-3′ (SEQ ID NO:12); Snail F: 5′-CAGACCCACTCAGATGTCAA-3′ (SEQ ID NO:13); Snail R: 5′-CATAGTTAGTCACACCTCGT-3′ (SEQ ID NO:14); Vimentin F: 5′-GGA CTC GGT GGA CTT CTC-3′ (SEQ ID NO:15); Vimentin R: 5′-CGC ATC TCC TCC TCG TAG-3′ (SEQ ID NO:16). The PCR reaction cycles involved an initial denaturation at 94° C. for 10 min, followed by 36 cycles of 94° C., 1 min; 55° C., 30 sec for RANKL and RANK and 48° C., 1 min for OPG; 72° C., 1 min and a final extension at 72° C. for 10 min. For E-cadherin and N-cadherin gene amplification, the PCR reactions ran for a total of 32 cycles and the annealing temperature was 55° C. and 47° C., respectively for 30 sec. For Snail, Vimentin, and GAPDH amplification, the PCR reactions ran for a total of 28 cycles with annealing temperatures at 48° C. for 30 sec. The amplified PCR products were detected and analyzed on 1% agarose gel.
as §1

In series [10] the test system is RANKL promoter in LNCaP and LNCaP-RANKL cells. Briefly: RANKL promoter reporter assay, LNCaP model. The format is cell-based, human. As to conditions: for RANKL promoter activities in LNCaP cells: vitamin D3 and PTH stimulation.
The subject of series [11] is RANKL promoter in human osteosarcoma SaOS-2 cells. Briefly: RANKL promoter reporter assay, SaOS-2. In kind it is cell-based. The following applies: exogenous PTH and vitamin D3. An excerpt: (§2) Because the inventors are interested in how RANKL is transcriptionally regulated, the inventors have constructed a 2.5 kb 5′ upstream region of RANKL promoter. The inventors used BAC clones (RP11-86N24) to amplify the promoter region of RANKL from human chromosome 13 contig. The whole promoter region (2.5 kb) was then cloned into pGL3 basic luciferase reporter vector. The inventors placed RANKL promoter reporter into ARCaPE,M, C4-2, and a positive cell line, SaOS-2 to examine the basic promoter activity. Then, the inventors stimulated the RANKL promoter by various growth factors, such as vitamin D3, PTH, and TGFβ.

Series [12] relates to RANKL promoter in ARCaPE, ARCaPM and ARCaPE-RANKL cells. In words: RANKL promoter reporter assay, ARCaP model. The format is cell-based, human. The following applies: vitamin D3 and PTH stimulation.
Excerpt: as §2

[13] abbreviates: 20 μM LY294002 or 2 μM PS341, 4 h.
[14] abbreviates: men with clinical progressive prostate or breast cancers.

As for “recombinant osteoprotegerin (OPG) (receptor)”, in series [1], the formation of mature osteoclasts (TRAP+ multinucleated cells) in co-culture of RAW264.7 with ARCaPE-RANKL cells worked out at 2 fold.

As for `C[S+]([O-])c1ccc(-c2nc(-c3ccncc3)c(-c3ccc(F)cc3)[nH]2)cc1` (stereo not shown) [SB203580], in series [2] (20 μM, 4 h), the “phosphorylated level of P65 in ARCaPE-RANKL cells” value is “reduction”. In addition, in [3] (20 μM), the “phosphorylated level of P65 in LNCaP-RANKL cells” value is recorded as “reduction”.

On to `CC(C)C[C@H](NC(=O)[C@H](Cc1ccccc1)NC(=O)c1cnccn1)B(O)O` [PS341, bortezomib], for which the “RANKL-induced EMT in ARCaPE-RANKL cells” value in [2] (2 μM, 4 h) is “prevented”. Moreover, in [2] (setting [13]), the “E-cadherin expression in ARCaPE-RANKL cells” value is “increased”; the “vimentin and RANKL expression in ARCaPE-RANKL cells” value is “decreased”. For the same molecule, in series [3] (2 μM), the “RANKL-induced EMT in LNCaP-RANKL cells” value is listed as “prevented”.

For the molecule recombinant osteoprotegerin (OPG), in series [4], the formation of mature osteoclasts (TRAP+ multinucleated cells) in co-culture of RAW264.7 with LNCaP-RANKL cells is 2 fold.

For the molecule denosumab, in series [5] (human, in vivo), the “osteonecrosis (undesirable side effects)” value is recorded as “reported in some patients”. In [5] (setting [14]), the “patients' survival” value is recorded as “improved” and the skeletal related events entry is “reduced”. For the same molecule, the “progression of castration-resistant prostate cancer (CRPC)” value in series [5] (patients with bone metastasis) is recorded as “delay or prevent”. Moreover, in series [6], the “expression of neuroendocrine markers” value was “blocked” and the “expression of stem cell markers” value is “antagonized”.

As for “HGF: HGF, exogenous treatment activating c-Met”, in series [7] (addition of HGF), the “p-c-Met expression of the RANKL-induced c-Met” value was “increased”. Further, the “cMet expression and phosphorylated level of cMet in LNCaP cells” value in [7] (exogeneous RANKL or HGF treatment) was “significantly increased”. Also, the “cMet expression and phosphorylated level of cMet in ARCaPE cells” value in [8] is “significantly increased”.

For the molecule `CCc1ccc(/C=C2/SC(=S)NC2=O)cc1` [10058-F4, reference compound], in [9], the “RANKL protein expression in LNCaP-RANKL cells or LNCaP cells treated with RANKL” value is “significantly decreased”. Also, in series [10] (20 μM cMyc inhibitor), the “RANKL transcriptional activity in LNCaP-RANKL cells or LNCaP cells treated with RANKL” value is “significantly decreased”.

As to `C=C1CC[C@H](O)C/C1=C/C=C1\CCC[C@]2(C)[C@@H]([C@H](C)CCCC(C)C)CC[C@@H]12` [vitamin D3, reference compound], the “RANKL transcriptional (promoter) activity in SaOS-2 cells” value in [11] is on record as “induced; also recorded: up-regulated”. In addition, the “RANKL promoter activities in LNCaP cells” value in [10] was “induced”. Also, the “RANKL promoter activities in ARCaPE cells” value in [12] is “induced”.

B1: parathyroid hormone (protein, UniProt P01270 32-115, looked up)
Parathyroid hormone: SVSEIQLMHNLGKHLNSMERVEWLRKKLQDVHNFVALGAPLAPRDAGSQRPRKKEDNVLVESHEKSLGEADKADVNVLTKAKSQ
modifications: Parathyroid hormone
For B1, the “RANKL transcriptional (promoter) activity in SaOS-2 cells” value in [11] is listed as “induced; also recorded: up-regulated”. In series [10], the “RANKL promoter activities in LNCaP cells” value is “induced”. The “RANKL promoter activities in ARCaPE cells” value in series [12] is reported as “induced”.
